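Protocol summary: plate cells (96-well), add compound at 5 concentrations, incubate 48 h, interpolate endpoints linearly. At the GI50, growth is halved.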 Active and inactive are the calls of the source. Rule as the data show it: active = GI50 up to about 1.1 µM and inactive = higher.
Columns and labels:
Test in all cases: growth of human tumour cells (NCI), 48 h
LOX IMVI = tested on: LOX IMVI
Malme-3M = tested on: Malme-3M
HOP-92 = tested on: HOP-92
SF-268 = tested on: SF-268
UACC-257 = tested on: UACC-257
HCC 2998 = tested on: HCC 2998
NCI/ADR-RES = tested on: NCI/ADR-RES
OVCAR-5 = tested on: OVCAR-5
MDA-N = tested on: MDA-N
SW-620 = tested on: SW-620
MDA-MB-435 = tested on: MDA-MB-435
CCRF-CEM = tested on: CCRF-CEM
SNB-19 = tested on: SNB-19
OVCAR-3 = tested on: OVCAR-3
COLO 205 = tested on: COLO 205
CAKI-1 = tested on: CAKI-1
786-0 = tested on: 786-0
KM12 = tested on: KM12

SMILES | GI50 (LOX IMVI) | GI50 (Malme-3M) | GI50 (HOP-92) | GI50 (SF-268) | GI50 (UACC-257) | GI50 (HCC 2998) | GI50 (NCI/ADR-RES) | GI50 (OVCAR-5) | GI50 (MDA-N) | GI50 (SW-620) | GI50 (MDA-MB-435) | GI50 (CCRF-CEM) | GI50 (SNB-19) | GI50 (OVCAR-3) | GI50 (COLO 205) | GI50 (CAKI-1) | GI50 (786-0) | GI50 (KM12)
C/C=C/[C@H]1O[C@@](O)([C@@H](C)[C@H](O)[C@H](C)[C@H]2OC(=O)/C(OC)=C/C(C)=C/[C@@H](C)[C@@H](O)[C@@H](CC)[C@@H](O)[C@H](C)C/C(C)=C/C=C/[C@@H]2OC)C[C@H](OC2CC(O)C(O)C(C)O2)[C@@H]1C (stereo partly specified) | < 0.0075 µM (active) | < 0.0075 µM (active) | 0.19 µM (active) | < 0.0075 µM (active) | < 0.0075 µM (active) | < 0.0075 µM (active) | < 0.0075 µM (active) | 3.49 µM (inactive) | < 0.0075 µM (active) | < 0.0075 µM (active) | < 0.0075 µM (active) | < 0.0075 µM (active) | 3.42 µM (inactive) | < 0.0075 µM (active) | < 0.0075 µM (active) | < 0.0075 µM (active) | < 0.0075 µM (active) | < 0.0075 µM (active)
O=C(N/N=C/c1ccc([N+](=O)[O-])cc1)Nc1ccc(Br)cc1 | 51.1 µM (inactive) | > 100 µM (inactive) | > 100 µM (inactive) | 52.2 µM (inactive) | > 100 µM (inactive) | 26.5 µM (inactive) | 49.2 µM (inactive) | > 100 µM (inactive) | 44.6 µM (inactive) | 52 µM (inactive) | 32.6 µM (inactive) | 23.4 µM (inactive) | 76.4 µM (inactive) | 32.2 µM (inactive) | 63.2 µM (inactive) | 83.6 µM (inactive) | 84.7 µM (inactive) | > 100 µM (inactive)
Oc1ccc(-c2cc(-c3cc(-c4ccc(O)cc4)no3)on2)cc1 | 11.5 µM (inactive) | 46.1 µM (inactive) | > 100 µM (inactive) | 41.2 µM (inactive) | 7.64 µM (inactive) | > 63.4 µM (inactive) | > 100 µM (inactive) | > 53.3 µM (inactive) | 36.9 µM (inactive) | > 30.3 µM (inactive) | > 100 µM (inactive) | 0.873 µM (active) | > 100 µM (inactive) | > 100 µM (inactive) | > 100 µM (inactive) | 56.6 µM (inactive) | > 100 µM (inactive) | 11.8 µM (inactive)
O=C(N/N=C/c1ccc([N+](=O)[O-])cc1)Nc1ccc(C(=O)O)cc1 | 31.3 µM (inactive) | 53 µM (inactive) | 16.9 µM (inactive) | 44 µM (inactive) | 28.4 µM (inactive) | 20.2 µM (inactive) | 27 µM (inactive) | 40.6 µM (inactive) | 30.5 µM (inactive) | 40.9 µM (inactive) | 29 µM (inactive) | 30.6 µM (inactive) | 38.6 µM (inactive) | 4.54 µM (inactive) | 23.1 µM (inactive) | 28.2 µM (inactive) | 39.1 µM (inactive) | 27.7 µM (inactive)
CCOC(=O)N/N=C(\CC)NO | > 100 µM (inactive) | > 100 µM (inactive) | > 100 µM (inactive) | > 100 µM (inactive) | > 100 µM (inactive) | > 100 µM (inactive) | > 100 µM (inactive) | > 100 µM (inactive) | > 100 µM (inactive) | > 100 µM (inactive) | > 100 µM (inactive) | > 100 µM (inactive) | > 100 µM (inactive) | > 100 µM (inactive) | > 100 µM (inactive) | > 100 µM (inactive) | > 100 µM (inactive) | > 100 µM (inactive)
O=[N+]([O-])C(=C(Sc1ccccc1)Sc1ccccc1)C(Cl)=C(Cl)Cl | 0.177 µM (active) | 0.458 µM (active) | 1.29 µM (inactive) | 2 µM (inactive) | 0.323 µM (active) | 2.39 µM (inactive) | 0.652 µM (active) | 0.486 µM (active) | 0.23 µM (active) | < 0.0391 µM (active) | 0.334 µM (active) | 0.0189 µM (active) | 10.6 µM (inactive) | 0.373 µM (active) | 0.157 µM (active) | 0.476 µM (active) | 0.0703 µM (active) | 2.44 µM (inactive)
O=C1C(Br)=CC2(C=C1Br)CCNC1=C2C(=O)c2cccnc2C1=O | 5.48 µM (inactive) | 9.46 µM (inactive) | 16 µM (inactive) | 13.3 µM (inactive) | 8.36 µM (inactive) | 18 µM (inactive) | 20.8 µM (inactive) | 17.4 µM (inactive) | 1.77 µM (inactive) | 11.5 µM (inactive) | 1.89 µM (inactive) | 6.22 µM (inactive) | 7.23 µM (inactive) | 6.01 µM (inactive) | 16.4 µM (inactive) | 17.4 µM (inactive) | 15.3 µM (inactive) | 16.1 µM (inactive)
